Results reported in US20250304549A1, “HYDROXYAMIDE DERIVATIVE AND USE THEREOF” (SICHUAN HUIYU PHARMACEUTICAL CO., LTD., priority 2022, published 2025).
Counter-ions that a name gives are not always drawn.

Key:
LSD1 = LSD1 (Homo sapiens (Human), UniProt O60341); experiment: In vitro enzyme inhibition assay - LSD1 (HTRF); format: biochemical
HDAC8 = HDAC8 (Homo sapiens (Human), UniProt Q9BY41); experiment: In vitro enzyme inhibition assay - HDAC (HDAC-Glo I/II), HDAC8; format: biochemical; settings: read-out: HDAC IC50 (nM) HDAC 8
Sequence of HDAC8 (Q9BY41 whole entry): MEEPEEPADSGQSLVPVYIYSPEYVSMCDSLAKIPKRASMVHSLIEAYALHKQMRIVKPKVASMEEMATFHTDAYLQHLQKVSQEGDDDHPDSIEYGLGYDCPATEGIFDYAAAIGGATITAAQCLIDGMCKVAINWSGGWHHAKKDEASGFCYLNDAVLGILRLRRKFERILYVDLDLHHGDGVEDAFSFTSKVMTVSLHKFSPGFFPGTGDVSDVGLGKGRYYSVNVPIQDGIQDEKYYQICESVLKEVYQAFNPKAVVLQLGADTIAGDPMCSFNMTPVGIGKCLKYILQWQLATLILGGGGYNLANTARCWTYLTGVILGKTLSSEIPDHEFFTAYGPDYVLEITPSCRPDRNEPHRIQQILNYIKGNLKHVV
Procedure, shortened: (§1)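 Inhibition was measured with the HDAC-Glo I/II luminescent assay, testing compound as an 8-point, 5-fold dilution series from a 1 mM DMSO stock. Luminescence (RLU) was normalized to no-inhibitor and no-enzyme controls, and IC50 was derived by four-parameter variable-slope fitting.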

pan-HDAC = experiment: In vitro enzyme inhibition assay - HDAC (HDAC-Glo I/II), pan-HDAC; format: biochemical
Procedure, shortened: as §1

NCI-H526 cells = experiment: In vitro cell inhibition assay - NCI-H526 cell proliferation (CellTiter-Glo); format: cell-based; settings: Homo sapiens, NCI-H526, 120 h, H526 small cell lung cancer cell proliferation, 5 days
Procedure: 6. In Vitro Cell Inhibition Assay—NCI-H526 Cell Proliferation
The inhibitory effect of the compounds on cell proliferation was assessed by detecting the number of viable cells using CellTiter-Glo® reagent. NCI-H526 cells in the logarithmic growth phase were collected and inoculated into transparent bottom 96-well plates at a density 1×10^3 cells per well with 100 μL of medium, and incubated at 37° C., 5% CO2 overnight. The compounds were sequentially diluted in a 5-fold concentration gradient with DMSO to obtain 8 different concentrations. These were then diluted with RPMI-640 (containing 10% FBS) cell culture medium to obtain the compound working solution (2×), which was added to the cell supernatant at 100 μL per well. The incubation continued for 5 days at 37° C., 5% CO2. The plate was then removed and equilibrated at room temperature (25° C.) along with the CellTiter-Glo® mixing reagent for 10-30 minutes; 80 μL of the culture medium was carefully aspirated from each well, and 80 μL of CellTiter-Glo® reagent was added. The cells were thoroughly mixed with the CellTiter-Glo® mixing reagent using a microplate shaker for 2 min. and then incubated at room temperature for 10 min. The 96-well plate was subsequently placed on a multifunctional microplate reader to record the Luminescence values (RLU).
The inhibition rate was calculated using the following formula: […]
Note: ‘Negative’ refers to the group without inhibitors; ‘Blank’ refers to the group without cells.
The IC50 value was determined by fitting the inhibition rate by GraphPad Prism software.

NCI-H69 cells = experiment: In vitro cell inhibition assay - NCI-H69 cell proliferation (CellTiter-Glo); format: cell-based; settings: Homo sapiens, NCI-H69, H69 small cell lung cancer cell proliferation
Procedure, shortened: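 Luminescence from CellTiter-Glo reagent served as the viability read-out after cells were exposed to compounds for 7 days at 37° C. Eight concentrations in a 5-fold series were tested in medium with 20% FBS. Inhibition was normalised to untreated and cell-free wells before IC50 fitting.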

NCI-H1417 cells = experiment: In vitro cell inhibition assay - H1417 cell proliferation (CellTiter-Glo); format: cell-based; settings: Homo sapiens, NCI-H1417, H1417 small cell lung cancer cell proliferation
Procedure, shortened: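 Cells exposed to 8 compound concentrations (5-fold dilutions) in BEGM with 10% FBS for 7 days at 37° C., 5% CO2. Viable cells measured by CellTiter-Glo luminescence; inhibition versus no-inhibitor and no-cell controls, IC50 fitted.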

Compound | IC50 (LSD1) [nM] | IC50 (HDAC8) [nM] | IC50 (pan-HDAC) [nM] | IC50 (NCI-H526 cells) [nM] | IC50 (NCI-H69 cells) [nM] | IC50 (NCI-H1417 cells) [nM]
COc1ccc(-c2cnc(N3CCC(NCc4ccc(/C=C/C(=O)NO)cc4F)CC3)c(C#N)c2-c2ccc(C#N)c(F)c2)cc1O [Example 154, (E)-3-(4-(((1-(3-Cyano-4-(4-cyano-3-fluorophenyl)-5-(3-hydroxy-4-methoxyphenyl)pyridin-2-yl)piperidin-4-yl)amino)methyl)-3-fluorophenyl)-N-hydroxyacrylamide hydrochloride] | 0.44 | 309 | 4.3 | 21.7 | 16.5 | 1.41
COc1ccc(-c2cnc(N3CCC(NCc4ccc(/C=C/C(=O)NO)cc4Cl)CC3)c(C#N)c2-c2ccc(C#N)c(F)c2)cc1O [Example 156, (E)-3-(3-Chloro-4-((1-(3-cyano-4-(4-cyano-3-fluorophenyl)-5-(3-hydroxy-4-methoxyphenyl)pyridin-2-yl)piperidin-4-yl)amino)methyl) phenyl)-N-hydroxyacrylamide formate] | 2.53 | 731 | 8.88 | 80.4 | 58.1 | 6.64
N#Cc1ccc(-c2c(-c3ccc(Cl)c(O)c3)cnc(N3CCC(NCc4cnc(/C=C/C(=O)NO)nc4)CC3)c2C#N)cc1F [Example 159, (E)-3-(5-(((1-(5-(4-Chloro-3-hydroxyphenyl)-3-cyano-4-(4-cyano-3-fluorophenyl)pyridin-2-yl)piperidin-4-yl)amino)methyl)pyrimidin-2-yl)-N-hydroxyacrylamide hydrochloride] | 1.82 | 83.5 | 2.71 | 16.1 | 17.9 | 3.5
COc1ccc(-c2cnc(N3CCC(NCc4ccc(/C=C/C(=O)NO)c(C#N)c4)CC3)c(C#N)c2-c2ccc(C#N)c(F)c2)cc1O [Example 162, (E)-3-(2-Cyano-4-((1-(3-cyano-4-(4-cyano-3-fluorophenyl)-5-(3-hydroxy-4-methoxyphenyl)pyridin-2-yl)piperidin-4-yl)amino)methyl) phenyl)-N-hydroxyacrylamide formate] | 0.4 | 209 | 3.34 | 18.5 | 21.7 | 2.98
CC(C)(O)COc1ccc(-c2cnc(N3CCC(NCc4ccc(/C=C/C(=O)NO)nc4)CC3)c(CC#N)c2-c2ccc(C#N)c(F)c2)cc1O [Example 221, (E)-3-(5-(((1-(4-(4-Cyano-3-fluorophenyl)-3-(cyanomethyl)-5-(3-hydroxy-4-(2-hydroxy-2-methylpropoxy)phenyl)pyridin-2-yl)piperidin-4-yl)amino)methyl)pyridin-2-yl)-N-hydroxyacrylamide formate] | 17.1 | – | 2.2 | 29 | 19.3 | 16.8
CC(C)(O)COc1ccc(-c2cnc(N3CCC(NC(C)(C)c4ccc(/C=C/C(=O)NO)cc4)CC3)c(C#N)c2-c2ccc(C#N)c(F)c2)cc1O [Example 223, (E)-3-(4-(2-((1-(3-Cyano-4-(4-cyano-3-fluorophenyl)-5-(3-hydroxy-4-(2-hydroxy-2-methylpropoxy)phenyl)pyridin-2-yl)piperidin-4-yl)amino)propan-2-yl)phenyl)-N-hydroxyacrylamide hydrochloride] | 1.01 | – | 4.37 | 16.8 | 4.56 | 3.23
COc1ccc(-c2cnc(N3CCC(NCc4ccc(/C=C/C(=O)NO)cc4)CC3)c(C#N)c2-c2cnc(C#N)c(F)c2)cc1O [Example 249, (E)-3-(4-(((1-(3′,6-Dicyano-5-fluoro-5′-(3-hydroxy-4-methoxyphenyl)-[3,4′-bipyridin]-2′-yl)piperidin-4-yl)amino)methyl)phenyl)-N-hydroxyacrylamide formate] | 1.1 | – | 0.86 | 11.7 | 2.74 | 1.26
COc1cc(F)c(-c2cnc(N3CCC(NCc4ccc(/C=C/C(=O)NO)cc4)CC3)c(C#N)c2-c2ccc(C#N)nc2)cc1O [Example 255, (E)-3-(4-(((1-(3′,6-Dicyano-5′-(2-fluoro-5-hydroxy-4-methoxyphenyl)-[3,4′-bipyridin]-2′-yl)piperidin-4-yl)amino)methyl)phenyl)-N-hydroxyacrylamide formate] | 1.54 | – | 0.68 | 11 | 7.82 | 3.39
COc1ccc(-c2cnc(N3CCC(NCc4ccc(/C=C/C(=O)NO)c(F)c4)CC3)c(C#N)c2-c2ccc(C#N)nc2)cc1O [Example 258, (E)-3-(4-(((1-(3′,6-Dicyano-5′-(3-hydroxy-4-methoxyphenyl)-[3,4′-bipyridin]-2′-yl)piperidin-4-yl)amino)methyl)-2-fluorophenyl)-N-hydroxyacrylamide formate] | 1.41 | – | 0.3 | 2.09 | 1.81 | 1.05
COc1ccc(-c2cnc(N3CCC(NCc4ccc(/C=C(\F)C(=O)NO)cc4)CC3)c(C#N)c2-c2ccc(C#N)nc2)cc1O [Example 260, (Z)-3-(4-(((1-(3′,6-Dicyano-5′-(3-hydroxy-4-methoxyphenyl)-[3,4′-bipyridin]-2′-yl)piperidin-4-yl)amino)methyl)phenyl)-2-fluoro-N-hydroxyacrylamide dformate] | 2.37 | – | 0.77 | 11.5 | 8.18 | 3.02
COc1ccc(-c2cnc(N3CCC(NCc4ccc(/C=C/C(=O)NO)cc4)CC3)c(OC)c2-c2ccc(C#N)nc2)cc1O [Example 263, (E)-3-(4-(((1-(6-Cyano-5′-(3-hydroxy-4-methoxyphenyl)-3′-methoxy-[3,4′-bipyridin]-2′-yl)piperidin-4-yl)amino)methyl)phenyl)-N-hydroxyacrylamide formate] | 16.8 | – | 0.34 | 2.22 | 1.14 | 1.64
COc1ccc(-c2cnc(N3CCC(NCc4ccc(/C=C/C(=O)NO)cc4F)CC3)c(OC)c2-c2ccc(C#N)nc2)cc1O [Example 264, (E)-3-(4-(((1-(6-Cyano-5′-(3-hydroxy-4-methoxyphenyl)-3′-methoxy-[3,4′-bipyridin]-2′-yl)piperidin-4-yl)amino)methyl)-3-fluorophenyl)-N-hydroxyacrylamide formate] | 25.4 | – | 0.89 | 5.12 | 1.84 | 2.2
COc1cc(F)c(-c2cnc(N3CCC(NCc4ccc(/C=C/C(=O)NO)cc4)CC3)c(OC)c2-c2ccc(C#N)nc2)cc1O [Example 265, (E)-3-(4-(((1-(6-Cyano-5′-(2-fluoro-5-hydroxy-4-methoxyphenyl)-3′-methoxy-[3,4′-bipyridin]-2′-yl)piperidin-4-yl)amino)methyl)phenyl)-N-hydroxyacrylamide formate] | 10.2 | – | 0.45 | 5.85 | 7.2 | 5.09
COc1ccc(-c2cnc(N3CCC(NCc4ccc(/C=C/C(=O)NO)nc4)CC3)c(OC)c2-c2ccc(C#N)nc2)cc1O [Example 266, (E)-3-(5-(((1-(6-Cyano-5′-(3-hydroxy-4-methoxyphenyl)-3′-methoxy-[3,4′-bipyridin]-2′-yl)piperidin-4-yl)amino)methyl)pyridin-2-yl)-N-hydroxyacrylamide formate] | 24.2 | – | 0.16 | 2.35 | 2.02 | 2.09
COc1ccc(-c2cnc(N3CCC(NCc4ccc(/C=C/C(=O)NO)cc4)CC3)c(F)c2-c2ccc(C#N)nc2)cc1O [Example 268, (E)-3-(4-(((1-(6-Cyano-3′-fluoro-5′-(3-hydroxy-4-methoxyphenyl)-[3,4′-bipyridin]-2′-yl)piperidin-4-yl)amino)methyl)phenyl)-N-hydroxyacrylamide formate] | 147 | – | 0.27 | 2.22 | 1.58 | 2.03
